Assay results: PMC6219668 (Oncotarget, 2018)
Like-named read-outs stand apart in the source and are kept apart here.

Test system: panel of nearly 500 cancer cell lines
Test: Cancer Cell Line Encyclopedia profiling, 3-day CellTiter-Glo
Format: cell-based
Conditions: read-out: IC50

Measured: IC50

CC(=O)c1c(C)c2cnc(Nc3ccc(N4CCNCC4)cn3)nc2n(C2CCCC2)c1=O [Palbociblib]
1.61 µM: nugc4 (stomach)
5.5 µM: msto211h (pleura)
5.92 µM: supm2 (haematopoietic_and_lymphoid_tissue)
6.71 µM: ncih2444 (lung)
6.74 µM: mdamb415 (breast)
1.01 µM: te617t (soft_tissue)
3.42 µM: sudhl10 (haematopoietic_and_lymphoid_tissue)
1.21 µM: sudhl8 (haematopoietic_and_lymphoid_tissue)
4.49 µM: ncih1944 (lung)
1.64 µM: sw780 (urinary_tract)
6.05 µM: ncih28 (pleura)
4.99 µM: sknbe2 (autonomic_ganglia)
6.95 µM: pfeiffer (haematopoietic_and_lymphoid_tissue)
4.75 µM: oe21 (oesophagus)
> 8 µM: loximvi (skin) | ls123 (large_intestine) | ludlu1 (lung) | m059j (central_nervous_system) | malme3m (skin) | mcas (ovary) | mcf7 (breast) | mdamb157 (breast) | mdamb175vii (breast) | mdamb436 (breast) | mdamb453 (breast) | mdamb468 (breast) | meg01 (haematopoietic_and_lymphoid_tissue) | melho (skin) | messa (soft_tissue) | mfe280 (endometrium) | mg63 (bone) | miapaca2 (pancreas) | mkn7 (stomach) | mkn45 (stomach) | mkn74 (stomach) | moggccm (central_nervous_system) | mpp89 (pleura) | ncih23 (lung) | ncih211 (lung) | ncih226 (lung) | ncih322 (lung) | ncih358 (lung) | ncih441 (lung) | ncih520 (lung) | ncih522 (lung) | ncih647 (lung) | ncih650 (lung) | ncih661 (lung) | ncih727 (lung) | ncih747 (large_intestine) | ncih810 (lung) | ncih1048 (lung) | ncih1092 (lung) | ncih1184 (lung) | ncih1341 (lung) | ncih1355 (lung) | ncih1373 (lung) | ncih1563 (lung) | ncih1568 (lung) | ncih1573 (lung) | ncih1581 (lung) | ncih1648 (lung) | ncih1650 (lung) | ncih1651 (lung) | ncih1666 (lung) | ncih1693 (lung) | ncih1694 (lung) | ncih1792 (lung) | ncih1869 (lung) | ncih1915 (lung) | ncih1975 (lung) | ncih2009 (lung) | ncih2023 (lung) | ncih2030 (lung) | ncih2052 (pleura) | ncih2085 (lung) | ncih2087 (lung) | ncih2122 (lung) | ncih2170 (lung) | ncih2172 (lung) | ncih2228 (lung) | ncih2452 (pleura) | ncih3255 (lung) | ncin87 (stomach) | nihovcar3 (ovary) | nugc3 (stomach) | oc314 (ovary) | oc315 (ovary) | oc316 (ovary) | ocum1 (stomach) | oe33 (oesophagus) | oncodg1 (ovary) | ons76 (central_nervous_system) | ov90 (ovary) | ovcar4 (ovary) | ovcar8 (ovary) | ovmana (ovary) | ovsaho (ovary) | ovtoko (ovary) | p31fuj (haematopoietic_and_lymphoid_tissue) | panc0203 (pancreas) | panc0327 (pancreas) | panc0403 (pancreas) | panc1005 (pancreas) | pc3 (prostate) | pk1 (pancreas) | pk59 (pancreas) | pk45h (pancreas) | pl45 (pancreas) | plcprf5 (liver) | raji (haematopoietic_and_lymphoid_tissue) | rd (soft_tissue) | rerfgc1b (stomach) | rerflcai (lung) | rerflcms (lung) | rkn (soft_tissue) | rko (large_intestine) | rl952 (endometrium) | rt4 (urinary_tract) | rt112 (urinary_tract) | rvh421 (skin) | saos2 (bone) | sbc5 (lung) | scaber (urinary_tract) | scc25 (upper_aerodigestive_tract) | sf126 (central_nervous_system) | sf295 (central_nervous_system) | sf8657 (skin) | sh10tc (stomach) | shp77 (lung) | sjrh30 (soft_tissue) | sjsa1 (bone) | skbr3 (breast) | skco1 (large_intestine) | skes1 (bone) | skhep1 (liver) | sklu1 (lung) | skmel2 (skin) | skmel5 (skin) | skmel24 (skin) | skmel30 (skin) | skmel31 (skin) | skmm2 (haematopoietic_and_lymphoid_tissue) | sknas (autonomic_ganglia) | skndz (autonomic_ganglia) | sknsh (autonomic_ganglia) | skov3 (ovary) | sngm (endometrium) | snu16 (stomach) | snu182 (liver) | snu423 (liver) | snu449 (liver) | snuc2a (large_intestine) | snuc2b (large_intestine) | su8686 (pancreas) | suit2 (pancreas) | supt1 (haematopoietic_and_lymphoid_tissue) | sw48 (large_intestine) | sw403 (large_intestine) | sw480 (large_intestine) | sw579 (thyroid) | sw620 (large_intestine) | sw900 (lung) | sw1271 (lung) | sw1353 (bone) | sw1417 (large_intestine) | sw1990 (pancreas) | t3m10 (lung) | t24 (urinary_tract) | t84 (large_intestine) | t98g (central_nervous_system) | t47d (breast) | tc71 (bone) | tccsup (urinary_tract) | te9 (oesophagus) | ten (endometrium) | toledo (haematopoietic_and_lymphoid_tissue) | tov21g (ovary) | tov112d (ovary)
2.04 µM: ncih1793 (lung)
4.62 µM: mj (haematopoietic_and_lymphoid_tissue)
7.56 µM: p3hr1 (haematopoietic_and_lymphoid_tissue)
5.73 µM: snu1 (stomach)
1.53 µM: ociaml2 (haematopoietic_and_lymphoid_tissue)
2.55 µM: lu99 (lung)
1.4 µM: mino (haematopoietic_and_lymphoid_tissue)
8 µM: mc116 (haematopoietic_and_lymphoid_tissue)
4.53 µM: ls513 (large_intestine)
5.91 µM: reh (haematopoietic_and_lymphoid_tissue)
